The conditions of the data set: 101 kPa, Liquid mixture 1.

± gives the expanded uncertainty stated by the source.

`c1ccccc1` [benzene] + O: the interfacial tension turned out to be 34.82 ± 0.33 mN/m (293.2 K, Drop weight); 34.06 ± 0.33 mN/m (298.2 K, Drop weight); 33.64 ± 0.32 mN/m (303.2 K, Drop weight); 32.87 ± 0.32 mN/m (308.2 K, Drop weight); 32.1 ± 0.31 mN/m (313.2 K, Drop weight); 31.62 ± 0.31 mN/m (318.2 K, Drop weight). For the same compound, the interfacial tension (323.2 K, Drop weight) was determined as 30.95 ± 0.3 mN/m; the interfacial tension (328.2 K, Drop weight) came out at 30.92 ± 0.3 mN/m; the interfacial tension (333.2 K, Drop weight) worked out at 30.52 ± 0.3 mN/m.

In the case of `CCCCCCCO` [heptan-1-ol] + O, the interfacial tension (293.2 K, Drop weight) worked out at 6.37 ± 0.12 mN/m; the interfacial tension (298.2 K, Drop weight) is 6.44 ± 0.12 mN/m; the interfacial tension (303.2 K, Drop weight) was determined as 6.52 ± 0.12 mN/m; the interfacial tension (313.2 K, Drop weight) worked out at 6.6 ± 0.12 mN/m; the interfacial tension (323.2 K, Drop weight) is reported as 6.62 ± 0.12 mN/m; the interfacial tension (333.2 K, Drop weight) is recorded as 6.58 ± 0.12 mN/m. Also, the interfacial tension (343.2 K, Drop weight) is recorded as 6.46 ± 0.12 mN/m.

`CCCCCCC` [heptane] + O: the interfacial tension reads like this: (293.2 K, Drop weight) 51.3 ± 0.46 mN/m; (298.2 K, Drop weight) 50.87 ± 0.46 mN/m; (303.2 K, Drop weight) 50.35 ± 0.45 mN/m; (308.2 K, Drop weight) 49.84 ± 0.45 mN/m; (313.2 K, Drop weight) 49.6 ± 0.45 mN/m; (318.2 K, Drop weight) 49 ± 0.44 mN/m. For the same compound, the interfacial tension (323.2 K, Drop weight) came to 48.54 ± 0.44 mN/m; the interfacial tension (328.2 K, Drop weight) was 48.1 ± 0.44 mN/m; the interfacial tension (333.2 K, Drop weight) is given as 47.73 ± 0.43 mN/m; the interfacial tension (338.2 K, Drop weight) was determined as 47.28 ± 0.43 mN/m; the interfacial tension (343.2 K, Drop weight) came to 46.7 ± 0.42 mN/m.

Regarding `CCCCCCO` [hexan-1-ol] + O, the interfacial tension came to 7.37 ± 0.12 mN/m (293.2 K, Drop weight); 7.49 ± 0.13 mN/m (298.2 K, Drop weight); 7.6 ± 0.13 mN/m (303.2 K, Drop weight); 7.7 ± 0.13 mN/m (313.2 K, Drop weight); 7.86 ± 0.13 mN/m (323.2 K, Drop weight); 7.9 ± 0.13 mN/m (333.2 K, Drop weight). Under “343.2 K, Drop weight”, the interfacial tension was 7.87 ± 0.13 mN/m.

Turning to `CCCCCC` [hexane] + O, the interfacial tension by setting is: (293.2 K, Drop weight) 50.81 ± 0.46 mN/m; (298.2 K, Drop weight) 50.49 ± 0.45 mN/m; (303.2 K, Drop weight) 50.11 ± 0.45 mN/m; (308.2 K, Drop weight) 49.68 ± 0.45 mN/m; (313.2 K, Drop weight) 49.28 ± 0.44 mN/m; (318.2 K, Drop weight) 48.84 ± 0.44 mN/m. Also, the interfacial tension is, setting by setting: (323.2 K, Drop weight) 48.46 ± 0.44 mN/m; (328.2 K, Drop weight) 47.94 ± 0.43 mN/m; (333.2 K, Drop weight) 46.92 ± 0.43 mN/m.

As for `CCCCCCCCCO` [nonan-1-ol] + O, the interfacial tension is 8.18 ± 0.25 mN/m (293.2 K); 8.48 ± 0.26 mN/m (298.2 K); 9 ± 0.26 mN/m (303.2 K); 9.15 ± 0.27 mN/m (313.2 K); 9.86 ± 0.28 mN/m (323.2 K); 9.67 ± 0.27 mN/m (333.2 K). Besides, where the note is “343.2 K”, the interfacial tension is listed as 9.72 ± 0.27 mN/m.

On to `CCCCCCCCC` [nonane] + O, for which the interfacial tension (293.2 K, Drop weight) came to 51.95 ± 0.46 mN/m; the interfacial tension (298.2 K, Drop weight) amounted to 51.54 ± 0.46 mN/m; the interfacial tension (303.2 K, Drop weight) was found to be 51.11 ± 0.46 mN/m; the interfacial tension (308.2 K, Drop weight) amounted to 50.68 ± 0.46 mN/m; the interfacial tension (313.2 K, Drop weight) was found to be 50.23 ± 0.45 mN/m; the interfacial tension (318.2 K, Drop weight) stood at 49.63 ± 0.45 mN/m. Besides, the interfacial tension came to 49.09 ± 0.44 mN/m (323.2 K, Drop weight); 48.46 ± 0.44 mN/m (328.2 K, Drop weight); 48.03 ± 0.43 mN/m (333.2 K, Drop weight); 47.61 ± 0.43 mN/m (338.2 K, Drop weight); 46.96 ± 0.43 mN/m (343.2 K, Drop weight).

On to `CCCCCCCCO` [octan-1-ol] + O, for which the interfacial tension runs as follows: (293.2 K, Drop weight) 8.02 ± 0.13 mN/m; (298.2 K, Drop weight) 8.19 ± 0.13 mN/m; (303.2 K, Drop weight) 8.42 ± 0.13 mN/m; (313.2 K, Drop weight) 8.62 ± 0.13 mN/m; (323.2 K, Drop weight) 8.83 ± 0.13 mN/m; (333.2 K, Drop weight) 9.02 ± 0.13 mN/m. Further, the interfacial tension (343.2 K, Drop weight) stood at 9.02 ± 0.13 mN/m.

Regarding `CCCCCCCC` [octane] + O, the interfacial tension (293.2 K, Drop weight) is recorded as 51.67 ± 0.46 mN/m; the interfacial tension (298.2 K, Drop weight) came to 51.2 ± 0.46 mN/m; the interfacial tension (303.2 K, Drop weight) is reported as 50.78 ± 0.46 mN/m; the interfacial tension (308.2 K, Drop weight) is reported as 50.28 ± 0.45 mN/m; the interfacial tension (313.2 K, Drop weight) is recorded as 49.9 ± 0.45 mN/m; the interfacial tension (318.2 K, Drop weight) came out at 49.31 ± 0.44 mN/m. In addition, the interfacial tension runs as follows: (323.2 K, Drop weight) 48.86 ± 0.44 mN/m; (328.2 K, Drop weight) 48.34 ± 0.44 mN/m; (333.2 K, Drop weight) 47.81 ± 0.43 mN/m; (338.2 K, Drop weight) 47.33 ± 0.43 mN/m; (343.2 K, Drop weight) 46.82 ± 0.43 mN/m.

Values taken from the NIST ThermoML archive (doi:10.1021/je500450w).
